Measured values: ChEMBL document CHEMBL1158094, “Paratunamides A-D, oxindole alkaloids from Cinnamodendron axillare” (J Nat Prod, 2006)
In brackets after ≈: the same amount, converted by molar mass.

System: KB
Assay: Cytotoxicity against human KB cells
Format: functional, cell-based

Row | Compound | IC50
1 | C=C[C@H]1[C@H](O[C@@H]2O[C@H](CO)[C@@H](O)[C@H](O)[C@H]2O)OC=C2C(=O)N(CC[C@@]3(O)C(=O)Nc4ccccc43)[C@H](OC)C[C@H]21 [PARATUNAMIDE A] | > 10 µg/mL
2 | C=C[C@H]1[C@H](O[C@@H]2O[C@H](CO)[C@@H](O)[C@H](O)[C@H]2O)OC=C2C(=O)N(CC[C@@]3(O)C(=O)Nc4ccccc43)C(=O)C[C@H]21 [PARATUNAMIDE B] | > 10 µg/mL
3 | C=C[C@H]1[C@H](O[C@@H]2O[C@H](CO)[C@@H](O)[C@H](O)[C@H]2O)OC=C2C(=O)N(CC[C@]3(O)C(=O)Nc4ccccc43)C(=O)C[C@H]21 [PARATUNAMIDE C] | > 10 µg/mL
4 | C=C[C@H]1[C@H](O[C@@H]2O[C@H](CO)[C@@H](O)[C@H](O)[C@H]2O)OC=C2C(=O)N(CC[C@@]3(O)C(=O)Nc4ccccc43)[C@H](O)C[C@H]21 [PARATUNAMIDE D] | 6 µg/mL (≈ 10.9 µM)
